{"source": "paper PMC6268108", "about": "“Design, Practical Synthesis, and Biological Evaluation of Novel 6-(Pyrazolylmethyl)-4-quinoline-3-carboxylic Acid Derivatives as HIV-1 Integrase Inhibitors” (Molecules, 2012)", "key": {"HIV-1 integrase": {"molecular_target": "T1, HIV-1 integrase (Human immunodeficiency virus type 1 group M subtype B, UniProt P04585)", "T1 construct": "pre-incubated with 800 ng integrase at 37.8 °C in the reaction buffer", "assay": "HIV-1 integrase strand transfer (ST) activity assay", "format": "biochemical", "settings": "1 h; read-out: IC50 (inhibition of strand transfer)", "description": "A HIV-1 integrase strand transfer (ST) activity assay was carried out to test the inhibition effectiveness of our compounds as described previously with some minor modifications. Compounds diluted in DMSO were pre-incubated with 800 ng integrase at 37.8 °C in the reaction buffer in the absence of Mn^2+ for 10 min. Subsequently, 1.5 pmol donor DNA and 9 pmol target DNA were added and the reaction was initiated by the addition of 10 mmol/L Mn^2+ into the final reaction volume. The reactions were carried out at 37.8 °C for 1 h and subsequent detection procedure was applied to detect the assay signals."}}}
{"smiles": "Cc1nn(Cc2ccc3c(c2)c(=O)c(C(=O)O)cn3Cc2ccc([N+](=O)[O-])cc2)c(C)c1Br", "note": "[Compound 16c, 1-(4-Nitrobenzyl)-6-((4-bromo-3,5-dimethyl-1H-pyrazol-1-yl)methyl)-4-oxo-1,4dihydroquinoline-3-carboxylic acid]", "values": [{"measurement": "melting point", "result": "266 to 268", "unit": "°C"}, {"measurement": "inhibition at 100 µg/mL", "setting": "HIV-1 integrase", "result": "< 50", "unit": "%"}]}
{"smiles": "Cc1cc(C)n(Cc2ccc3c(c2)c(=O)c(C(=O)O)cn3CCCS)n1", "note": "[Compound 14a, 1-(3-Mercaptopropyl)-6-((3,5-dimethyl-1H-pyrazol-1-yl)methyl)-4-oxo-1,4-dihydroquinoline-3-carboxylic acid]", "values": [{"measurement": "melting point", "result": "225 to 226", "unit": "°C"}, {"measurement": "inhibition at 100 µg/mL", "setting": "HIV-1 integrase", "result": "< 50", "unit": "%"}]}
{"smiles": "Cc1nn(Cc2ccc3[nH]cc(C(=O)O)c(=O)c3c2)c(C)c1Cl", "note": "[Compound 11b, 6-((4-Chloro-3,5-dimethyl-1H-pyrazol-1-yl)methyl)-4-oxo-1,4-dihydroquinoline-3-carboxylic acid]", "values": [{"measurement": "melting point", "result": "263 to 265", "unit": "°C"}, {"measurement": "inhibition at 100 µg/mL", "setting": "HIV-1 integrase", "result": "< 50", "unit": "%"}]}
{"smiles": "Cc1nn(Cc2ccc3c(c2)c(=O)c(C(=O)O)cn3CC(O)CO)c(C)c1Br", "note": "(stereo not drawn) [Compound 12c, 1-(2,3-Dihydroxypropyl)-6-((4-bromo-3,5-dimethyl-1H-pyrazol-1-yl)methyl)-4-oxo-1,4-dihydroquino-line-3-carboxylic acid]", "values": [{"measurement": "melting point", "result": "267 to 269", "unit": "°C"}, {"measurement": "inhibition at 100 µg/mL", "setting": "HIV-1 integrase", "result": "< 50", "unit": "%"}]}
{"smiles": "Cc1nn(Cc2ccc3[nH]cc(C(=O)O)c(=O)c3c2)c(C)c1Br", "note": "[Compound 11c, 6-((4-Bromo-3,5-dimethyl-1H-pyrazol-1-yl)methyl)-4-oxo-1,4-dihydroquinoline-3-carboxylic acid]", "values": [{"measurement": "melting point", "result": "253 to 256", "unit": "°C"}, {"measurement": "inhibition at 100 µg/mL", "setting": "HIV-1 integrase", "result": "< 50", "unit": "%"}]}
{"smiles": "Cc1cc(C)n(Cc2ccc3c(c2)c(=O)c(C(=O)O)cn3CC(O)CO)n1", "note": "(stereo not drawn) [Compound 12a, 1-(2,3-Dihydroxypropyl)-6-((3,5-dimethyl-1H-pyrazol-1-yl)methyl)-4-oxo-1,4-dihydroquinoline-3-carboxylic acid]", "values": [{"measurement": "melting point", "result": "187 to 189", "unit": "°C"}, {"measurement": "inhibition at 100 µg/mL", "setting": "HIV-1 integrase", "result": "< 50", "unit": "%"}]}
{"smiles": "Cc1nn(Cc2ccc3c(c2)c(=O)c(C(=O)O)cn3Cc2ccc(F)cc2)c(C)c1Br", "note": "[Compound 15c, 1-(4-Fluorobenzyl)-6-((4-bromo-3,5-dimethyl-1H-pyrazol-1-yl)methyl)-4-oxo-1,4-dihydro-quinoline-3-carboxylic acid]", "values": [{"measurement": "melting point", "result": "255 to 257", "unit": "°C"}, {"measurement": "inhibition at 100 µg/mL", "setting": "HIV-1 integrase", "result": "< 50", "unit": "%"}]}
{"smiles": "Cc1nn(Cc2ccc3c(c2)c(=O)c(C(=O)O)cn3Cc2ccc(F)cc2)c(C)c1Cl", "note": "[Compound 15b, 1-(4-Fluorobenzyl)-6-((4-chloro-3,5-dimethyl-1H-pyrazol-1-yl)methyl)-4-oxo-1,4-dihydro-quinoline-3-carboxylic acid]", "values": [{"measurement": "melting point", "result": "239 to 241", "unit": "°C"}, {"measurement": "inhibition at 100 µg/mL", "setting": "HIV-1 integrase", "result": "< 50", "unit": "%"}]}
{"smiles": "Cc1nn(Cc2ccc3c(c2)c(=O)c(C(=O)O)cn3CC(=O)O)c(C)c1Cl", "note": "[Compound 13b, 1-(Carboxymethyl)-6-((4-chloro-3,5-dimethyl-1H-pyrazol-1-yl)methyl)-4-oxo-1,4-dihydroquinoline-3-carboxylic acid]", "values": [{"measurement": "melting point", "result": "292 to 295", "unit": "°C"}, {"measurement": "inhibition at 100 µg/mL", "setting": "HIV-1 integrase", "result": "< 50", "unit": "%"}]}
{"smiles": "Cc1nn(Cc2ccc3c(c2)c(=O)c(C(=O)O)cn3CC(=O)O)c(C)c1Br", "note": "[Compound 13c, 1-(Carboxymethyl)-6-((4-bromo-3,5-dimethyl-1H-pyrazol-1-yl)methyl)-4-oxo-1,4-dihydro-quinoline-3-carboxylic acid]", "values": [{"measurement": "melting point", "result": "278 to 280", "unit": "°C"}, {"measurement": "inhibition at 100 µg/mL", "setting": "HIV-1 integrase", "result": "< 50", "unit": "%"}]}
{"smiles": "Cc1nn(Cc2ccc3c(c2)c(=O)c(C(=O)O)cn3CCCS)c(C)c1Cl", "note": "[Compound 14b, 1-(3-Mercaptopropyl)-6-((4-chloro-3,5-dimethyl-1H-pyrazol-1-yl)methyl)-4-oxo-1,4-dihydro-quinoline-3-carboxylic acid]", "values": [{"measurement": "melting point", "result": "238 to 240", "unit": "°C"}, {"measurement": "inhibition at 100 µg/mL", "setting": "HIV-1 integrase", "result": "< 50", "unit": "%"}]}
{"smiles": "Cc1nn(Cc2ccc3c(c2)c(=O)c(C(=O)O)cn3CC(O)CO)c(C)c1Cl", "note": "(stereo not drawn) [Compound 12b, 1-(2,3-Dihydroxypropyl)-6-((4-chloro-3,5-dimethyl-1H-pyrazol-1-yl)methyl)-4-oxo-1,4-dihydro-quinoline-3-carboxylic acid]", "values": [{"measurement": "melting point", "result": "278 to 280", "unit": "°C"}, {"measurement": "inhibition at 100 µg/mL", "setting": "HIV-1 integrase", "result": "< 50", "unit": "%"}]}
{"smiles": "Cc1cc(C)n(Cc2ccc3c(c2)c(=O)c(C(=O)O)cn3Cc2ccc([N+](=O)[O-])cc2)n1", "note": "[Compound 16a, 1-(4-Nitrobenzyl)-6-((3,5-dimethyl-1H-pyrazol-1-yl)methyl)-4-oxo-1,4-dihydro-quinoline-3-carboxylic acid]", "values": [{"measurement": "melting point", "result": "274 to 276", "unit": "°C"}, {"measurement": "inhibition at 100 µg/mL", "setting": "HIV-1 integrase", "result": "< 50", "unit": "%"}]}
{"smiles": "Cc1cc(C)n(Cc2ccc3[nH]cc(C(=O)O)c(=O)c3c2)n1", "note": "[Compound 11a, 6-((3,5-Dimethyl-1H-pyrazol-1-yl)methyl)-4-oxo-1,4-dihydroquinoline-3-carboxylic acid]", "values": [{"measurement": "melting point", "result": "254 to 256", "unit": "°C"}, {"measurement": "inhibition at 100 µg/mL", "setting": "HIV-1 integrase", "result": "< 50", "unit": "%"}]}
{"smiles": "Cc1cc(C)n(Cc2ccc3c(c2)c(=O)c(C(=O)O)cn3Cc2ccc(F)cc2)n1", "note": "[Compound 15a, 1-(4-Fluorobenzyl)-6-((3,5-dimethyl-1H-pyrazol-1-yl)methyl)-4-oxo-1,4-dihydro-quinoline-3-carboxylic acid]", "values": [{"measurement": "melting point", "result": "271 to 273", "unit": "°C"}, {"measurement": "inhibition at 100 µg/mL", "setting": "HIV-1 integrase", "result": "< 50", "unit": "%"}]}
{"smiles": "Cc1nn(Cc2ccc3c(c2)c(=O)c(C(=O)O)cn3CCCS)c(C)c1Br", "note": "[Compound 14c, 6-((4-Bromo-3,5-dimethyl-1H-pyrazol-1-yl)methyl)-1-(3-mercaptopropyl)-4-oxo-1,4-dihydroquinoline-3-carboxylic acid]", "values": [{"measurement": "melting point", "result": "231 to 233", "unit": "°C"}, {"measurement": "inhibition at 100 µg/mL", "setting": "HIV-1 integrase", "result": "< 50", "unit": "%"}]}
{"smiles": "Cc1cc(C)n(Cc2ccc3c(c2)c(=O)c(C(=O)O)cn3CC(=O)O)n1", "note": "[Compound 13a, 1-(Carboxymethyl)-6-((3,5-dimethyl-1H-pyrazol-1-yl)methyl)-4-oxo-1,4-dihydroquinoline-3-carboxylic acid]", "values": [{"measurement": "melting point", "result": "> 300", "unit": "°C"}, {"measurement": "inhibition at 100 µg/mL", "setting": "HIV-1 integrase", "result": "< 50", "unit": "%"}]}
{"smiles": "Cc1nn(Cc2ccc3c(c2)c(=O)c(C(=O)O)cn3Cc2ccc([N+](=O)[O-])cc2)c(C)c1Cl", "note": "[Compound 16b, 1-(4-Nitrobenzyl)-6-((4-chloro-3,5-dimethyl-1H-pyrazol-1-yl)methyl)-4-oxo-1,4-dihydroquinoline-3-carboxylic acid]", "values": [{"measurement": "melting point", "result": "282 to 284", "unit": "°C"}, {"measurement": "inhibition at 100 µg/mL", "setting": "HIV-1 integrase", "result": "< 50", "unit": "%"}]}
